For series [1], the system named is PD1-ss+10aa/Gaussia Luciferase. The series can be described thus: Dox-Induced PD1-ss-Gluc Assay. Type of series: cell-based. From the text: Flp-In 293 T-REx™ cells were transfected with pcDNA™5/FRT/TO plasmid inserted with cDNA encoding Gaussia Luciferase fused to the 3′ end of cDNA encoding PD1 signal sequence plus 10 amino acids (N-[…]-C) (SEQ ID NO: 1). Transfected cells were selected for resistance to the selectable markers Hygromycin and Blasticidin to create a stable cell line that contained the PD1-ss+10aa/Gaussia Luciferase cDNA insert whose expression was regulated under the T-REx™ system. The day before assay, cells were trypsinized and plated in 384-well tissue culture plates. The next day, compound dilutions in DMSO/media containing doxycycline were added to the wells and incubated at 37° C., 5% CO2.
(§1) For chemical structures that include one or more stereoisomers, but are illustrated without indicating stereochemistry, the assay data refers to a mixture of stereoisomers.

Series [2] has as its system IL-2-FL/Gaussia Luciferase. The series can be described thus: Dox Inducible IL2-FL-Gluc Assay. It counts as cell-based.
Excerpt: Flp-In 293 T-REx™ cells were transfected with pcDNA™5/FRT/TO plasmid inserted with cDNA encoding Gaussia Luciferase fused to the 3′ end of cDNA encoding full length IL-2 (amino acids 1-153). Transfected cells were selected for resistance to the selectable markers Hygromycin and Blasticidin to create a stable cell line that contained the IL-2-FL/Gaussia Luciferase cDNA insert whose expression was regulated under the T-REx™ system. The day before assay, cells were trypsinized and plated in 384-well tissue culture plates. The next day, compound dilutions in DMSO/media containing doxycycline were added to the wells and incubated at 37° C., 5% CO2.
as §1

For series [3], the system named is CD47(ss + 10)Gluc. The series can be described thus: Dox-Induced CD47-ss-Gluc Assay. Type of series: cell-based.
A short description of series [4]: Liver Microsome Stability Assay, monkey. It counts as in vitro ADME. The settings on record: monkey liver microsomes 1.0 mg/mL, 1.0 uM compound, 37° C., 1 mM NADPH. As for the experimental part:
(§2) Stability of a compound was assessed in the presence of liver microsomes from various sources—mouse, rat, monkey and human liver microsomes. 1.0 uM compound, 0.4% DMSO in 0.1 M Potassium Phosphate with 1.0 mg/mL liver microsomes, were incubated at 37° C. with or without 1 mM NADPH. The samples were quenched at 0, and 30 minutes.

Series [5] relates to IL6R-ss+10aa/Gaussia Luciferase. The series can be described thus: Dox-induced IL-6R-ss-Gluc Assay. Type of series: cell-based.
Excerpt: Flp-In 293 T-REx™ cells were transfected with pcDNATM5/FRT/TO plasmid inserted with cDNA encoding Gaussia Luciferase fused to the 3′ end of cDNA encoding IL6R signal sequence plus 10 amino acids (N-[…]-C). Transfected cells were selected for resistance to the selectable markers Hygromycin and Blasticidin to create a stable cell line that contained the IL6R-ss+10aa/Gaussia Luciferase cDNA insert whose expression was regulated under the T-REx™ system. The day before assay, cells were trypsinized and plated in 384-well tissue culture plates. The next day, compound dilutions in DMSO/media containing doxycycline were added to the wells and incubated at 37° C., 5% CO2.
as §1

The subject of series [6] is multiple myeloma cell line NCI-H929. The series can be described thus: H929 Cell Viability Assay. It counts as cell-based, human. The settings on record: NCI-H929 cells, 48 hours, Celltiter-Glo; for EC50: Homo sapiens, read-out: 48 hr H929 Viability Celltiter-Glo: Mean EC50. On the procedure: The human multiple myeloma cell line NCI-H929 was cultured in Advanced RPMI 1640 media (Gibco®) supplemented with 6% fetal bovine serum, 2 mM Glutamine, and 1× Penicillin/Streptomycin. On the day of assay, cells were resuspended in RPMI 1640 media supplemented with 10% fetal bovine serum, 2 mM Glutamine, and 1× Penicillin/Streptomycin and plated in 384-well tissue culture plates and treated with compound dilutions in DMSO/media. Plates were incubated at 37° C., 5% CO2 for 48 hours. After 48 hours, Celltiter-Glo® (Promega) was added to each well and luciferase signal was quantified using Tecan Infinite M1000 Pro for cell viability determination.
as §1
On the technique in general: In ATP-based viability assays light output follows the ATP content of the culture.

Series [7] in a line: Liver Microsome Stability Assay, human. The settings on record: human liver microsomes 1.0 mg/mL, 1.0 uM compound, 37° C., 1 mM NADPH. Type of series: in vitro ADME. On the procedure: as §2
In general terms: Microsomes from liver hold many membrane-bound enzymes, among them those of drug oxidation.

A short description of series [8]: Liver Microsome Stability Assay, mouse. It counts as in vitro ADME. The settings on record: mouse liver microsomes 1.0 mg/mL, 1.0 uM compound, 37° C., 1 mM NADPH. On the procedure:
as §2

In series [9] the test system is multiple myeloma cell line U266B1. The series can be described thus: U266 Cell Viability Assay. The settings on record: Homo sapiens. Type of series: cell-based. On the procedure:
The human multiple myeloma cell line U266B1 was cultured in RPMI 1640 media supplemented with 10% fetal bovine serum, 2 mM Glutamine, and 1× Penicillin/Streptomycin. Cells were plated in 384-well tissue culture plates and treated with compound dilutions in DMSO/media. Plates were incubated at 37° C., 5% CO2 for 48 hours. After 48 hours, Celltiter-Glo® (Promega) was added to each well and luciferase signal was quantified using Tecan Infinite M1000 Pro for cell viability determination.
as §1

The nature of series [10]: Liver Microsome Stability Assay, rat. Type of series: in vitro ADME. The settings on record: rat liver microsomes 1.0 mg/mL, 1.0 uM compound, 37° C., 1 mM NADPH. On the procedure: as §2
The mark [11] stands for this setting: ratio of IC50s IL2/PD1; Table 1.
Setting [12] is: ratio of IC50s IL6R/PD1; Table 1.
Where [13] appears, read: Flp-In 293 T-REx cells, 24 hours with doxycycline; Table 1; read-out: 24 hr Dox Inducible PD1ssGluc 293FRT/TO: Mean IC50.
Where [14] appears, read: Flp-In 293 T-REx cells, 24 hours with doxycycline; Table 1; read-out: 24 hr Dox Inducible IL2FLGluc 293FRT/TO: Mean IC50.
[15] abbreviates: Flp-In 293 T-REx cells, 24 hours with doxycycline; Table 1; read-out: 24 hr Dox Inducible CD47(ss + 10)Gluc 293FRT/TO: Mean IC50.
[16] abbreviates: Flp-In 293 T-REx cells, 24 hours with doxycycline; Table 1; read-out: 24hr Dox Inducible IL6R(ss + 10)Gluc 293FRT/TO: Mean IC50.
Setting [17] is: U-266, U266B1 cells, 48 hours, Celltiter-Glo, read-out: 48 hr U266 Viability Celltiter-Glo: Mean EC50.

Like-named read-outs stand apart in the source and are kept apart here.

What is called EC50 is the concentration that produces a half-maximal response.

For the compound `COc1cc(C(=O)Nc2nc(/C=C/c3ncn(C(C)C)c3Cl)c(Cl)s2)n(Cc2ccnc(F)c2)c1` [Compound A6, (E)-N-(5-chloro-4-(2-(5-chloro-1-isopropyl-1H-imidazol-4-yl)vinyl)thiazol-2-yl)-1-((2-fluoropyridin-4-yl)methyl)-4-methoxy-1H-pyrrole-2-carboxamide], the IC50 in [1] (read-out: 24 hr Dox Inducible PD1ssGluc 293FRT/TO: Mean IC50; Flp-In 293 T-REx cells, 24 hours with doxycycline; Table 1) was found to be 85 nM; in series [2] (read-out: 24 hr Dox Inducible IL2FLGluc 293FRT/TO: Mean IC50; Flp-In 293 T-REx cells, 24 hours with doxycycline; Table 1) it was 2420 nM; in series [3] (read-out: 24 hr Dox Inducible CD47(ss + 10)Gluc 293FRT/TO: Mean IC50; Flp-In 293 T-REx cells, 24 hours with doxycycline; Table 1), 2160 nM; in series [5] (read-out: 24hr Dox Inducible IL6R(ss + 10)Gluc 293FRT/TO: Mean IC50; Flp-In 293 T-REx cells, 24 hours with doxycycline; Table 1), 2330 nM. Besides, the “24 hr Dox Inducible IL2FLGluc 293FRT/TO: IL2/PD1” value in [2] (setting [11]) came out at 29. Further, the “Liver Microsome Stability (Multiple Species): Monkey - % Remaining after 30 min w/ NADPH (%)” value in series [4] turned out to be 30%. The “24hr Dox Inducible IL6R(ss + 10)Gluc 293FRT/TO: IL6R/PD1” value in series [5] (setting [12]) was found to be 28. In addition, in series [6], the “48 hr H929 Viability Celltiter-Glo: Mean EC50 (nM)” value is “I.A”. Besides, in [7], the “Liver Microsome Stability (Multiple Species): Human - % Remaining after 30 min w/ NADPH (%)” value came to 48%. In addition, in [8], the “Liver Microsome Stability (Multiple Species): Mouse - % Remaining after 30 min w/ NADPH (%)” value is recorded as 96%. Also, the EC50 in [9] (U-266, 48 h, read-out: 48 hr U266 Viability Celltiter-Glo: Mean EC50 (nM)) was above 25000 nM. In addition, the “Liver Microsome Stability (Multiple Species): Rat - % Remaining after 30 min w/ NADPH (%)” value in [10] is listed as 76%.

For `CC(C)n1cnc(/C=C/c2csc(NC(=O)c3cc(OC(F)F)cn3Cc3ccnc(F)c3)n2)c1Cl` [Compound A7, (E)-N-(4-(2-(5-chloro-1-isopropyl-1H-imidazol-4-yl)vinyl)thiazol-2-yl)-4-(difluoromethoxy)-1-((2-fluoropyridin-4-yl)methyl)-1H-pyrrole-2-carboxamide], the IC50 in series [1] (setting [13]) stood at 14 nM; in [2] (setting [14]) it was 2700 nM; in [3] (setting [15]) it was 2100 nM; in [5] (setting [16]) it was 2430 nM. The “24 hr Dox Inducible IL2FLGluc 293FRT/TO: IL2/PD1” value in series [2] (setting [11]) stood at 200. For the same compound, the “Liver Microsome Stability (Multiple Species): Monkey - % Remaining after 30 min w/ NADPH (%)” value in series [4] turned out to be 55%. Also, the “24hr Dox Inducible IL6R(ss + 10)Gluc 293FRT/TO: IL6R/PD1” value in series [5] (setting [12]) is 176. Besides, the EC50 in series [6] was 19500 nM; in series [9] (setting [17]), above 25000 nM. In addition, in [7], the “Liver Microsome Stability (Multiple Species): Human - % Remaining after 30 min w/ NADPH (%)” value was found to be 64%. In addition, the “Liver Microsome Stability (Multiple Species): Mouse - % Remaining after 30 min w/ NADPH (%)” value in series [8] was found to be 82%. The “Liver Microsome Stability (Multiple Species): Rat - % Remaining after 30 min w/ NADPH (%)” value in [10] was found to be 84%.

Consider `O=C(Nc1nc(/C=C/c2ncoc2C(F)(F)F)cs1)c1cc(Cl)cn1Cc1ccnc(F)c1` [Compound A8, (E)-4-chloro-1-((2-fluoropyridin-4-yl)methyl)-N-(4-(2-(5-(trifluoromethyl)oxazol-4-yl)vinyl)thiazol-2-yl)-1H-pyrrole-2-carboxamide], for which the IC50 in [1] (setting [13]) came out at 129 nM; in series [2] (setting [14]), 1820 nM; in series [3] (setting [15]) it was 1740 nM; in [5] (setting [16]) it was 1960 nM. Also, the “24 hr Dox Inducible IL2FLGluc 293FRT/TO: IL2/PD1” value in [2] (setting [11]) was 14. The “Liver Microsome Stability (Multiple Species): Monkey - % Remaining after 30 min w/ NADPH (%)” value in series [4] is recorded as 68%. Also, the “24hr Dox Inducible IL6R(ss + 10)Gluc 293FRT/TO: IL6R/PD1” value in series [5] (setting [12]) came out at 15. Besides, the EC50 in series [6] came out at 7440 nM; in series [9] (setting [17]), 12800 nM. Besides, the “Liver Microsome Stability (Multiple Species): Human - % Remaining after 30 min w/ NADPH (%)” value in series [7] was determined as 72%. Further, the “Liver Microsome Stability (Multiple Species): Mouse - % Remaining after 30 min w/ NADPH (%)” value in series [8] came out at 86%. Moreover, the “Liver Microsome Stability (Multiple Species): Rat - % Remaining after 30 min w/ NADPH (%)” value in series [10] turned out to be 47%.

For the compound `COc1cc(C(=O)Nc2nc(/C(F)=C/c3cn(C(C)C)cn3)cs2)n(Cc2ccnc(F)c2)c1` [Compound A9, (Z)-N-(4-(1-fluoro-2-(1-isopropyl-1H-imidazol-4-yl)vinyl)thiazol-2-yl)-1-((2-fluoropyridin-4-yl)methyl)-4-methoxy-1H-pyrrole-2-carboxamide], the IC50 in series [1] (setting [13]), in series [2] (setting [14]), in series [3] (setting [15]) and in [5] (setting [16]) was above 25000 nM each time. Further, the “Liver Microsome Stability (Multiple Species): Monkey - % Remaining after 30 min w/ NADPH (%)” value in series [4] is listed as 9%. Moreover, the EC50 in series [6] and in series [9] (setting [17]) was above 25000 nM in each case. Further, the “Liver Microsome Stability (Multiple Species): Human - % Remaining after 30 min w/ NADPH (%)” value in [7] is reported as 11%. For the same compound, in series [8], the “Liver Microsome Stability (Multiple Species): Mouse - % Remaining after 30 min w/ NADPH (%)” value is given as 64%. The “Liver Microsome Stability (Multiple Species): Rat - % Remaining after 30 min w/ NADPH (%)” value in [10] turned out to be 66%.

For the origin of these results see patent US20250171434A1, “SEC61 INHIBITORS AND USE THEREOF” (KEZAR LIFE SCIENCES, INC., priority 2022, published 2025).
